Experimental findings from ChEMBL document CHEMBL1128772, “Methylenedioxyphenyl substituted compounds from Piper species as inhibitors of liver microsome-mediated aflatoxin B1-DNA binding in vitro” (Bioorg Med Chem Lett, 1995) are described below.

What is called inhibition is the percentage by which the read-out fell short of the control.

For test [1], the system named is Nucleic Acid. Put plainly: In vitro binding affinity to rat liver microsome-mediated AFB1-DNA using [3H]- AFB1 radioligand assay at concentration of 10 uM. It counts as microsomes.
Test [2] relates to Nucleic Acid. As to the kind of experiment: In vitro binding affinity to rat liver microsome-mediated AFB1-DNA using [3H]- AFB1 radioligand assay at concentration of 100 uM. The format is microsomes. In general terms: Microsomes from liver hold many membrane-bound enzymes, among them those of drug oxidation.
For test [3], the system named is Nucleic Acid. As to the kind of experiment: In vitro binding affinity to rat liver microsome-mediated AFB1-DNA using [3H]- AFB1 radioligand assay at concentration of 50 uM.
For test [4], the system named is Nucleic Acid. Put plainly: Tested in vitro for inhibition of rat liver microsome-mediated AFB1-DNA at concentration of 10 uM. It counts as microsomes.
Test [5] relates to Nucleic Acid. Put plainly: Tested in vitro for inhibition of rat liver microsome-mediated AFB1-DNA at concentration of 100 uM. It counts as microsomes.
Test [6] deals with Nucleic Acid. As to the kind of experiment: Tested in vitro for inhibition of rat liver microsome-mediated AFB1-DNA at concentration of 50 uM. The format is microsomes.

`c1cc2c(cc1[C@H]1OC[C@H]3[C@@H]1CO[C@H]3c1ccc3c(c1)OCO3)OCO2`: the Binding (pM 30min-1 (mg of DNA)-1) came out at 105 in test [1], 68.2 in test [2] and 76.5 in test [3]. Moreover, the inhibition stood at 21% in test [4], 48% in test [5] and 42% in test [6].

`C=CCC1=C[C@@](OC)([C@H](C)Cc2ccc3c(c2)OCO3)C(OC)=CC1=O`: the Binding (pM 30min-1 (mg of DNA)-1) was 124 in test [1], 122 in test [2] and 123 in test [3]. The results for the inhibition in test [4], in test [5] and in test [6] were 11%, 13% and 12%, respectively.

Regarding `COC(=O)/C=C/C=C/c1ccc2c(c1)OCO2`, the results for the Binding (pM 30min-1 (mg of DNA)-1) in test [1], in test [2] and in test [3] were 110, 50.7 and 76, respectively. For the same compound, the inhibition in test [4] came out at 16%; in test [5] it was 61%; in test [6], 42%.

With `O=C(/C=C/C=C/c1ccc2c(c1)OCO2)N1CCCCC1`, the Binding (pM 30min-1 (mg of DNA)-1) is 96.6 in test [1], 56.6 in test [2] and 70 in test [3]. For the same compound, the inhibition in test [4] turned out to be 27%; in test [5], 57%; in test [6], 47%.

Turning to `C=CCC1=C[C@]2(OC)[C@H](C)[C@@H](c3ccc4c(c3)OCO4)O[C@]2(OC)C[C@@H]1O`, the values for the Binding (pM 30min-1 (mg of DNA)-1) in test [1], in test [2] and in test [3] were 91, 24.8 and 48, respectively. Also, the inhibition in test [4] worked out at 31%; in test [5] it was 81%; in test [6] it was 64%.

As to `C=CCC1=C[C@]2(OC)[C@H](C)[C@@H](c3ccc4c(c3)OCO4)O[C@]2(OC)CC1=O`, the Binding (pM 30min-1 (mg of DNA)-1) is 127 in test [1], 108 in test [2] and 110 in test [3]. Further, the inhibition in test [4] was determined as 9%; in test [5], 23%; in test [6], 21%.
